Results on 3 compounds are retold here after PMC3602154 (PLoS ONE, 2013).

Assay [1] concerns the target NET (norepinephrine transporter) (Homo sapiens, UniProt P23975). The assay can be described thus: PDSP radioligand binding, norepinephrine transporter. The following applies: 10 µM, quadruplicate; read-out: NET Primary Screen inhibition of binding. An excerpt:
(§1) [17] and http://pdsp.med.unc.edu/UNC-CH%20Protocol%20Book.pdf.

The target of assay [2] is Sigma2 (Homo sapiens, UniProt Q5BJF2). The assay can be described thus: PDSP radioligand binding, Sigma2. The following applies: for Ki: Table 2.
Chain of Sigma2 (Q5BJF2 whole entry): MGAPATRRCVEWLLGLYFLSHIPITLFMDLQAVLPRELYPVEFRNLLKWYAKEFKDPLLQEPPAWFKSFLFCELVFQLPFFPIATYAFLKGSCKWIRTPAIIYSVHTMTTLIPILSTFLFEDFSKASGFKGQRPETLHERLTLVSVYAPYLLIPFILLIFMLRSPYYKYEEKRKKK
Text: as §1

For assay [3], the target named is Sigma1 (Homo sapiens, UniProt Q99720). The assay can be described thus: PDSP radioligand binding, Sigma1. The following applies: for inhibition at 10 µM: quadruplicate, read-out: Sigma1 Primary Screen inhibition of binding.
Chain of Sigma1 (Q99720 whole entry): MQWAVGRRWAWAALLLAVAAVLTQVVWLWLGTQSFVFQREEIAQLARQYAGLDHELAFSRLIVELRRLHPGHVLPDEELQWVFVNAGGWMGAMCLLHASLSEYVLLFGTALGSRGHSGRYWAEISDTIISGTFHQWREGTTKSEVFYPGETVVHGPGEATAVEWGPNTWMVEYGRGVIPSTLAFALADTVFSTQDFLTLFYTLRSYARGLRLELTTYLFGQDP
Text: as §1

The target in assay [4] is SERT (serotonin transporter) (Homo sapiens, UniProt P31645). Nature of the assay: biochemical. Format: binding.
Chain of SERT (serotonin transporter) (P31645 whole entry, species assumed): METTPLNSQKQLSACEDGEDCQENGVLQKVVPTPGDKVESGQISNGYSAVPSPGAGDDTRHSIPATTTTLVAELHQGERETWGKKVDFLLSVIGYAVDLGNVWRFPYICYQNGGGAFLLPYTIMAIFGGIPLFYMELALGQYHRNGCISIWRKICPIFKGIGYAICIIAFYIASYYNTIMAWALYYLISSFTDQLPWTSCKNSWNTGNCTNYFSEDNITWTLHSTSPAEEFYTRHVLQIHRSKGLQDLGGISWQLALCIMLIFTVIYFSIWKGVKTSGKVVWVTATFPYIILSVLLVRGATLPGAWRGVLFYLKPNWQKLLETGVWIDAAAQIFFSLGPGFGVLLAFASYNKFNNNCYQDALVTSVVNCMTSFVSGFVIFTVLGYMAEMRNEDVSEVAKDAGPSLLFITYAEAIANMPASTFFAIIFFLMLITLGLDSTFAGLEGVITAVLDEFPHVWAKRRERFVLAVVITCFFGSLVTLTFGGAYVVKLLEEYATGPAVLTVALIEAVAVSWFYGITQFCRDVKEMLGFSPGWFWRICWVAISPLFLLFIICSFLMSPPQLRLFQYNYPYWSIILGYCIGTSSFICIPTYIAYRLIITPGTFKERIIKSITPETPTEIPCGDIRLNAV
Text: as §1

The target of assay [5] is NMDA Receptor (MK-801 binding site). Nature of the assay: PDSP radioligand binding, NMDA receptor. The following applies: Table 2; for Ki: read-out: NMDA (Ki) (converted).
Text: as §1

In assay [6] the test system is dopamine transporter (DAT). The following applies: cited from earlier work.

Chain of NET (norepinephrine transporter) (P23975 whole entry, species assumed): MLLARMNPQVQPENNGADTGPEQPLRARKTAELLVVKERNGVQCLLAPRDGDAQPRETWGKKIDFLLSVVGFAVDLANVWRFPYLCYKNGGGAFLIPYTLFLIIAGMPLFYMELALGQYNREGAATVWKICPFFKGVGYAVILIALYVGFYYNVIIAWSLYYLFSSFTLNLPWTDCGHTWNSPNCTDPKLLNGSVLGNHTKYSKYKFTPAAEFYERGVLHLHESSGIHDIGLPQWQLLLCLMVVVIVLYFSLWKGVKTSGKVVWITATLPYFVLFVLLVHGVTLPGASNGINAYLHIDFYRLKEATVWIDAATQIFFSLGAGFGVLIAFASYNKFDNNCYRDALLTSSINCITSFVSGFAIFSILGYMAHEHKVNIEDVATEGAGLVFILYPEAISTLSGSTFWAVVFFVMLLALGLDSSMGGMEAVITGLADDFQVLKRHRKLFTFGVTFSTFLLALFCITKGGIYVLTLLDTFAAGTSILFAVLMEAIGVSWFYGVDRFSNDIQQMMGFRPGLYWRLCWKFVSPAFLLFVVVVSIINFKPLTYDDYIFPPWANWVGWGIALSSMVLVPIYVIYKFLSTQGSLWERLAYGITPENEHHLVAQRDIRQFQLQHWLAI

For orientation: inhibition means the relative decrease from the control value, in per cent. `CNC1(c2ccccc2Cl)CCCCC1=O` (racemic) [Ketamine, (RS)-2-(2-chlorophenyl)-2-(methylamino)cyclohexanone, reference compound]: the inhibition at 10 µM in assay [1] is less than 50%; in assay [2] (10 µM, quadruplicate, read-out: Sigma2 Primary Screen inhibition of binding), less than 50%; in assay [3], less than 50%. For the same compound, the “effect on sigma2 receptors” value in assay [2] (tested at 10 µM) is listed as “no significant effect”. In addition, the “effect on sigma1 receptors” value in assay [3] (tested at 10 µM) is listed as “no significant effect”.
By Ki is commonly meant a measure of affinity in units of concentration, obtained from inhibition or displacement. As to `CCNC1(c2cccc(OC)c2)CCCCC1` [3-MeO-PCE, N-ethyl-1-(3-methoxyphenyl)cyclohexanamine], the inhibition at 10 µM in assay [1] is less than 50%. Besides, the “affinity for the serotonin transporter (SERT), in words” value in assay [4] is on record as “submicromolar affinities”. The Ki was 0.115 µM in assay [4] (Table 2); 0.061 µM in assay [5]; 525 nM in assay [2] (Sigma2 (Ki, nM)); 490 nM in assay [2] (Sigma2 pKi +/− SD); 4.52 µM in assay [3]. The “NMDA pKi +/− SD” value in assay [5] came out at 7.22±0.08.
Regarding `c1ccc(C2(N3CCCCC3)CCCCC2)cc1` [Phencyclidine, reference compound], the inhibition at 10 µM in assay [1] and in assay [3] was less than 50% each time. In addition, the “potency at DAT, in words” value in assay [6] is reported as “submicromolar potency”. In addition, the Ki in assay [5] is 0.059 µM; in assay [2] (Sigma2 (Ki, nM)), 136 nM; in assay [2] (Sigma2 pKi +/− SD), 151 nM.
